Literature values as cited in article PMC11571109, “Covalent Inhibitors of S100A4 Block the Formation of a Pro-Metastasis Non-Muscle Myosin 2A Complex” (Journal of Medicinal Chemistry, 2024).

Test system: S100A4
Set-up: method as in PMID 20421509
Settings: by inducing oligomerization; read-out: IC50 S100A4 inhibition; cited from earlier work

With c1ccc2c(c1)Nc1ccccc1S2 [phenothiazine] as the molecule, how does the IC50 read?
The IC50 was ~100 µM.
